{"source": "patent US5635356A", "about": "“Anti-oncoimmunin-M antibodies and uses thereof” (The United States of America as represented by the …, priority 1994, dated 1997)", "system": "Oncoimmunin-M treated HL-60 cells", "test": "Chemotaxis in multiwell microchemotaxis chamber", "assay_type": "cell-based, human", "conditions": "HL-60 cells exposed to Oncoimmunin-M (2 nM) for two days; f-Met-Leu-Phe 10^-10 to 10^-6 M; 3 hr, 37° C.; FIG. 22C", "procedure": "To assess whether the Oncoimmunin-M induced alterations in integrin expression are associated with the induction of a biologic activity which could serve a role in antitumor or antimicrobial function, HL-60 cells that had been exposed to Oncoimmunin-M (2 nM) for two days were assayed for chemotactic ability. Specifically, the treated cells were placed in a multiwell microchemotaxis chamber and assayed for their ability to migrate in response to a gradient of the chemoattractant recombinant human C5a (rHuC5a), recombinant interleukin-8, and the peptide f-Met-Leu-Phe.\nCells were suspended in the serum-free medium (SFM) at a concentration of 5×10^5 cells/ml. Assays in which the total number of cells migrating through the polyvinylpyrrolidone-free polycarbonate membranes (5 μm pores; Nucleopore Corp., Pleasanton, Calif.) were performed for 3 hr in a 37° C. incubator containing 5% CO2. After incubation, nonmigrated cells were wiped off the filters which were then fixed in methanol and stained with Diff-Quik (Dade Diagnostics, Inc., Aguada, Puerto Rico). Migrated cells were counted with an Optomax System 40-10 Image Analyzer (Optomax, Inc., Hollis, N.H., U.S.A.). Random migration was determined by quantifying cell migration to serum-free medium alone.", "data": [{"smiles": "CSCC[C@H](NC=O)C(=O)N[C@@H](CC(C)C)C(=O)N[C@@H](Cc1ccccc1)C(=O)O", "note": "[f-Met-Leu-Phe]", "values": [{"measurement": "migratory (chemotactic) response to chemoattractant gradient", "value": "no significant response"}]}]}
